Experimental data reported in patent publication EP0565593B1, “REDUCING PESTICIDAL INTERACTIONS IN CROPS” (priority 1990, dated 1992).
Where two headings read alike, the source gives them in different places.

Tests used:
[1] = tested on: Corn; test: Greenhouse test Procedure VII: biocide and antidote in furrow, herbicide POE (Examples 39-42, 48-50, 56-58; Tables 38-41, 47-49, 55-57); type: in vivo; conditions: Antidote + Biocide No. 1 in furrow
How it was run: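 Corn seed was planted in greenhouse pots, with COUNTER 15G insecticide plus antidote granules applied in-furrow (e.g. 1.1 + 0.37 mg a.i./cm, or 227 g/305 m with acetone-applied safeners). About five days later, herbicides in water with 0.25% v/v X-77 were track-sprayed post-emergence at 187 L/ha. Plant response was scored eight days afterward, with two to four replicates.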

[2] = tested on: Corn
[3] = tested on: Corn; remark: listed apart in the source

N#CCOc1ccc(Cl)c2cccnc12 [compound 33]
% Inhibition Corn ([1]; Herbicide No. 1 0.14 Kg/Ha POE, 8 days after POE): 0%
% Inhibition Corn ([1]; Herbicide No. 4 0.17 Kg/Ha POE, 8 days after POE): 5%
% Inhibition Corn ([1]; Herbicide No. 5 0.07 Kg/Ha POE, 8 days after POE): 30%
% Inhibition Corn ([1]; Herbicide No. 6 0.01 Kg/Ha POE): 20%
% Inhibition Corn ([1]; Herbicide No. 7 0.56 Kg/Ha POE, 8 days after POE): 10%
% Inhibition Corn ([1]; Herbicide No. 9 0.009 Kg/Ha POE): 5%
% Inhibition Corn ([1]; Herbicide No. 10 0.002 Kg/Ha POE, 8 days after POE): 5%
% Inhibition Corn ([1]; Herbicide No. 15 0.0044 Kg/Ha POE, 8 days after POE): 15%
% Inhibition Corn ([1]; Herbicide No. 16 0.01 Kg/Ha POE): 30%
% Inhibition Corn ([1]; Herbicide No. 18 0.0044 Kg/Ha POE): 10%
% Inhibition Corn ([1]; Herbicide No. 19 0.28 Kg/Ha POE): 10%
% Inhibition Corn ([1]; Herbicide No. 21 0.14 Kg/Ha POE): 20%
% Inhibition Corn ([1]; Herbicide No. 23 0.0006 Kg/Ha POE): 15%
safener activity ([2]; ACCENT POE + OP insecticides PPI, Tables 11-14): most active
% Inhibition 5 DAP Corn ([2]; Antidote 4.48 + Biocide No. 1 8.96 Kg/Ha PPI, Herb. No. 8 0.07, 5 DAP, before herbicide application): 25%
% Inhibition 13 DAP Corn ([2]; Antidote 4.48 + Biocide No. 1 8.96 Kg/Ha PPI, Herb. No. 8 0.07 POE, 13 DAP): 20%
% Inhibition Corn ([2]; Antidote 4.48 + Biocide No. 1 8.96 Kg/Ha PPI, Herbicide No. 7 0.28 POE, 13 days after planting): 15%
% Inhibition 5 DAP Corn ([2]; Herb. […], 5 DAP, before herbicide application): 0%
safener activity ([2]; PURSUIT POE + insecticides PPI, Tables 15-18): most active
% Inhibition Corn ([2]; Table 14: Herbicide No. 7 (ACCENT) 0.84 Kg/Ha POE + Biocide No. 2 8.96 Kg/Ha PPI + antidote 4.48 Kg/Ha PPI, 13 days after planting, 8 days after herbicide): 0%
% Inhibition Corn ([2]; […], 13 days after planting, 8 days after herbicide): 10%
% Inhibition Corn ([2]; […], observed 10 days after herbicide application): 40%
% Inhibition 5 DAP Corn ([2]; in vivo): 30%
% Inhibition 13 DAP Corn ([2]; in vivo): 20%
effect on corn before application of the herbicide ([2]; in vivo): Some injury
activity in reducing corn injury ([2]; primisulfuron POE + biocides PPI, Tables 8-10): most active
safening activity ([3]; MON-12000 + OP insecticides, Examples 20-23): Safening activity was observed
safening activity ([3]; XRD-498 + OP insecticides, Examples 24-27): Safening activity was observed
safening ([3]; malathion + Herbicides 1, 21, 18, Example 54): moderate to high degrees of safening
